Consider six compounds from PubChem BioAssay AID1053207 (Broad Institute, 2014).

Experiment [1] can be described thus: Vaccinia stage specific inhibitors, mCherry reporter channel, infected cells, confirmatory dose response (AID 1053207). As to conditions: Vaccinia-infected cells, mCherry/Venus stage reporter fluorescence; for max activity: measured here: Venus reporter max activity.
The subject of experiment [2] is Vaccinia-infected cells, mCherry/Venus stage reporter fluorescence. The experiment is described as above.
Where [3] appears, read: measured here: mCherry reporter channel.

Active and inactive are the calls of the source. How the calls were made is not given here. Some results are limits rather than exact numbers.

For the compound `Cc1cccc(-c2ccc(CN(C)C[C@@H]3Oc4cc(C#C[C@@H](C)O)ccc4S(=O)(=O)N([C@@H](C)CO)C[C@@H]3C)cc2)c1`, in experiment [1] (at 2.6 µM), the max activity stood at 140%. Besides, the AC50 in experiment [2] and in experiment [2] (setting [3]) was 1660 nM in each case.

`Cc1ccccc1-c1ccc(CN(C)C[C@@H]2Oc3cc(C#C[C@@H](C)O)ccc3S(=O)(=O)N([C@@H](C)CO)C[C@@H]2C)cc1`: the max activity in experiment [1] (at 2.6 µM) amounted to 157%. The AC50 in experiment [2] and in experiment [2] (setting [3]) was 1230 nM throughout.

As to `C[C@@H](O)C#Cc1ccc2c(c1)O[C@@H](CN(C)S(=O)(=O)c1ccc(-c3ccccc3)cc1)[C@@H](C)CN([C@@H](C)CO)S2(=O)=O`, the activity change, negative = inhibition in experiment [1] (at 19.5 µM (top of the series)) is -18.5% (inactive). Further, the max activity in experiment [1] (at 10 µM) was -14.6%. For the same compound, the AC50 in experiment [2] (measured here: Venus reporter channel) and in experiment [2] (setting [3]) was more than 39000 nM throughout.

Consider `Cc1ccc(-c2ccc(CN(C)C[C@@H]3Oc4cc(C#C[C@@H](C)O)ccc4S(=O)(=O)N([C@@H](C)CO)C[C@@H]3C)cc2)cc1`, for which the max activity in experiment [1] (at 1.2 µM) was found to be 122%. In addition, the AC50 in experiment [2] and in experiment [2] (setting [3]) was 1250 nM in each case.

For the compound `C[C@@H](O)C#Cc1ccc2c(c1)O[C@@H](CN(C)Cc1ccc(-c3ccccc3Cl)cc1)[C@@H](C)CN([C@@H](C)CO)S2(=O)=O`, the max activity in experiment [1] (at 2.6 µM) came to 145%. For the same compound, the AC50 in experiment [2] and in experiment [2] (setting [3]) was 1190 nM each time.

In the case of `C[C@@H](O)C#Cc1ccc2c(c1)O[C@@H](CN(C)Cc1ccc(-c3ccccc3)cc1)[C@@H](C)CN([C@@H](C)CO)S2(=O)=O`, the max activity in experiment [1] (at 2.6 µM) came out at 115%. The AC50 in experiment [2] and in experiment [2] (setting [3]) was 2350 nM throughout.
